Assay results taken from ChEMBL document CHEMBL1126034, “Carboxylic acid replacement structure-activity relationships in suosan type sweeteners. A sweet taste antagonist. 1” (J Med Chem, 1992).

Experiments:
Type in all cases: functional
[1] = Compound was tested at the concentration of 4000(ppm) for percent sucrose intensity in aspartame solution contains concentration of 250(ppm)
[2] = Compound was tested at the concentration of 2000(ppm) for percent sucrose intensity in aspartame solution contains concentration of 1000(ppm)
[3] = Compound was tested at the concentration of 0(ppm) for percent sucrose equivalent intensity in NHDHC aqueous solution contains concentration of 250(ppm)
[4] = Compound was tested at the concentration of 0.0 mg/mL for percent sucrose intensity in aqueous sucrose solution( 10%)
[5] = Compound was tested at the concentration of 2.0 mg/mL for percent sucrose intensity in aqueous sucrose solution (7.5%)
[6] = Compound was tested at the concentration of 4000(ppm) for percent sucrose intensity in aspartame solution contains concentration of 750(ppm)
[7] = Compound was tested at the concentration of 0(ppm) for percent sucrose intensity in aspartame solution contains concentration of 1000(ppm)
[8] = Compound was tested at the concentration of 0(ppm) for percent sucrose equivalent intensity in MAG aqueous solution contains concentration of 3000(ppm)
[9] = Compound was tested at the concentration of 3.0 mg/mL for percent sucrose intensity in aqueous sucrose solution (5.6%)
[10] = Compound was tested at the concentration of 0.0 mg/mL for percent sucrose intensity in aqueous sucrose solution(5.6%)
[11] = Compound was tested at the concentration of 0(ppm) for percent sucrose equivalent intensity in saccharin aqueous solution contains concentration of 330(ppm)
[12] = Compound was tested at the concentration of 0(ppm) for percent sucrose equivalent intensity in sucralose aqueous solution contains concentration of 152(ppm)
[13] = Compound was tested at the concentration of 1000(ppm) for percent sucrose intensity in aspartame solution contains concentration of 1500(ppm)
[14] = Compound was tested at the concentration of 4.0 mg/mL for percent sucrose intensity in aqueous sucrose solution (10%)
[15] = Compound was tested at the concentration of 3.0 mg/mL for percent sucrose intensity in aqueous sucrose solution (7.5%)
[16] = Compound was tested at the concentration of 1000(ppm) for percent sucrose intensity in aspartame solution contains concentration of 2500(ppm)
[17] = Compound was tested at the concentration of 0(ppm) for percent sucrose intensity in aspartame solution contains concentration of 2500(ppm)
[18] = Compound was tested at the concentration of 4000(ppm) for percent sucrose intensity in aspartame solution contains concentration of 2000(ppm)
[19] = Compound was tested at the concentration of 4000(ppm) for percent sucrose intensity in aspartame solution contains concentration of 2500(ppm)
[20] = Compound was tested at the concentration of 0(ppm) for percent sucrose intensity in aspartame solution contains concentration of 250(ppm)
[21] = Compound was tested at the concentration of 4000(ppm) for percent sucrose intensity in aspartame solution contains concentration of 3000(ppm)
[22] = Compound was tested at the concentration of 0(ppm) for bitterness rating in caffiene aqueous solution contains concentration of 1100(ppm)
[23] = Compound was tested at the concentration of 2.0 mg/mL for percent sucrose intensity in aqueous sucrose solution (3.5%)
[24] = Compound was tested at the concentration of 4.0 mg/mL for percent sucrose intensity in aqueous sucrose solution (12.5%)
[25] = Compound was tested at the concentration of 0(ppm) for bitterness rating in quinine aqueous solution contains concentration of 15(ppm)
[26] = Compound was tested at the concentration of 4000(ppm) for bitterness rating in naringin aqueous solution contains concentration of 290(ppm)
[27] = Compound was tested at the concentration of 4000(ppm) for percent sucrose equivalent intensity in MAG aqueous solution contains concentration of 3000(ppm)
[28] = Compound was tested at the concentration of 0(ppm) for percent sucrose intensity in aspartame solution contains concentration of 500(ppm)
[29] = Compound was tested at the concentration of 0.0 mg/mL for percent sucrose intensity in aqueous sucrose solution(12.5%)
[30] = Compound was tested at the concentration of 4.0 mg/mL for percent sucrose intensity in aqueous sucrose solution (7.5%)
[31] = Compound was tested at the concentration of 4000(ppm) for percent sucrose equivalent intensity in sucrose aqueous solution contains concentration of 10000(ppm)
[32] = Compound was tested at the concentration of 4000(ppm) for percent sucrose equivalent intensity in saccharin aqueous solution contains concentration of 330(ppm)
[33] = Compound was tested at the concentration of 2.0 mg/mL for percent sucrose intensity in aqueous sucrose solution (12.5%)
[34] = Compound was tested at the concentration of 1000(ppm) for percent sucrose intensity in aspartame solution contains concentration of 2000(ppm)
[35] = Compound was tested at the concentration of 4000(ppm) for bitterness rating in caffiene aqueous solution contains concentration of 1100(ppm)
[36] = Compound was tested at the concentration of 4000(ppm) for percent sucrose intensity in aspartame solution contains concentration of 1000(ppm)
[37] = Compound was tested at the concentration of 1000(ppm) for percent sucrose intensity in aspartame solution contains concentration of 1000(ppm)
[38] = Compound was tested at the concentration of 4000(ppm) for percent sucrose intensity in aspartame solution contains concentration of 500(ppm)
[39] = Compound was tested at the concentration of 4000(ppm) for percent sucrose equivalent intensity in aspartame aqueous solution contains concentration of 750(ppm)
[40] = Compound was tested at the concentration of 2000(ppm) for percent sucrose intensity in aspartame solution contains concentration of 750(ppm)
[41] = Compound was tested at the concentration of 4000(ppm) for percent sucrose equivalent intensity in thaumatin aqueous solution contains concentration of 40(ppm)
[42] = Compound was tested at the concentration of 4000(ppm) for percent sucrose equivalent intensity in acesulfame-K aqueous solution contains concentration of 1000(ppm)
[43] = Compound was tested at the concentration of 4000(ppm) for bitterness rating in quinine aqueous solution contains concentration of 15(ppm)
[44] = Compound was tested at the concentration of 0.0 mg/mL for percent sucrose intensity in aqueous sucrose solution(7.5%)
[45] = Compound was tested at the concentration of 4.0 mg/mL for percent sucrose intensity in aqueous sucrose solution (5.6%)
[46] = Compound was tested at the concentration of 2000(ppm) for percent sucrose intensity in aspartame solution contains concentration of 250(ppm)
[47] = Compound was tested at the concentration of 0(ppm) for percent sucrose intensity in aspartame solution contains concentration of 2000(ppm)
[48] = Compound was tested at the concentration of 2000(ppm) for percent sucrose intensity in aspartame solution contains concentration of 2000(ppm)
[49] = Compound was tested at the concentration of 4000(ppm) for percent sucrose equivalent intensity in sucralose aqueous solution contains concentration of 152(ppm)
[50] = Compound was tested at the concentration of 2000(ppm) for percent sucrose intensity in aspartame solution contains concentration of 500(ppm)
[51] = Compound was tested at the concentration of 2000(ppm) for percent sucrose intensity in aspartame solution contains concentration of 3000(ppm)
[52] = Compound was tested at the concentration of 2000(ppm) for percent sucrose intensity in aspartame solution contains concentration of 2500(ppm)
[53] = Compound was tested at the concentration of 0(ppm) for percent sucrose equivalent intensity in sucrose aqueous solution contains concentration of 10000(ppm)
[54] = Compound was tested at the concentration of 3.0 mg/mL for percent sucrose intensity in aqueous sucrose solution (10%)
[55] = Compound was tested at the concentration of 0(ppm) for percent sucrose equivalent intensity in rebaudioside A aqueous solution contains concentration of 638(ppm)
[56] = Compound was tested at the concentration of 4000(ppm) for percent sucrose intensity in aspartame solution contains concentration of 1500(ppm)
[57] = Compound was tested at the concentration of 4000(ppm) for percent sucrose equivalent intensity in NHDHC aqueous solution contains concentration of 250(ppm)
[58] = Compound was tested at the concentration of 0(ppm) for percent sucrose intensity in aspartame solution contains concentration of 750(ppm)
[59] = Compound was tested at the concentration of 2000(ppm) for percent sucrose intensity in aspartame solution contains concentration of 1500(ppm)
[60] = Compound was tested at the concentration of 0(ppm) for bitterness rating in naringin aqueous solution contains concentration of 290(ppm)
[61] = Compound was tested at the concentration of 2.0 mg/mL for percent sucrose intensity in aqueous sucrose solution (5.6%)
[62] = Compound was tested at the concentration of 0(ppm) for percent sucrose equivalent intensity in thaumatin aqueous solution contains concentration of 40(ppm)
[63] = Compound was tested at the concentration of 3.0 mg/mL for percent sucrose intensity in aqueous sucrose solution (3.5%)
[64] = Compound was tested at the concentration of 0(ppm) for percent sucrose intensity in aspartame solution contains concentration of 3000(ppm)
[65] = Compound was tested at the concentration of 1000(ppm) for percent sucrose intensity in aspartame solution contains concentration of 3000(ppm)
[66] = Compound was tested at the concentration of 0(ppm) for percent sucrose equivalent intensity in acesulfame-K aqueous solution contains concentration of 1000(ppm)
[67] = Compound was tested at the concentration of 4.0 mg/mL for percent sucrose intensity in aqueous sucrose solution (3.5%)
[68] = Compound was tested at the concentration of 2.0 mg/mL for percent sucrose intensity in aqueous sucrose solution (10%)
[69] = Compound was tested at the concentration of 4000(ppm) for percent sucrose equivalent intensity in rebaudioside A aqueous solution contains concentration of 638(ppm)
[70] = Compound was tested at the concentration of 0.0 mg/mL for percent sucrose intensity in aqueous sucrose solution(3.5%)
[71] = Compound was tested at the concentration of 0(ppm) for percent sucrose equivalent intensity in Na cyclamate aqueous solution contains concentration of 5000(ppm)
[72] = Compound was tested at the concentration of 4000(ppm) for percent sucrose equivalent intensity in Na cyclamate aqueous solution contains concentration of 5000(ppm)
[73] = Compound was tested at the concentration of 1000(ppm) for percent sucrose intensity in aspartame solution contains concentration of 250(ppm)
[74] = Compound was tested at the concentration of 0(ppm) for percent sucrose intensity in aspartame solution contains concentration of 1500(ppm)
[75] = Compound was tested at the concentration of 0(ppm) for percent sucrose equivalent intensity in aspartame aqueous solution contains concentration of 750(ppm)
[76] = Compound was tested at the concentration of 1000(ppm) for percent sucrose intensity in aspartame solution contains concentration of 500(ppm)
[77] = Compound was tested at the concentration of 1000(ppm) for percent sucrose intensity in aspartame solution contains concentration of 750(ppm)
[78] = Compound was tested at the concentration of 3.0 mg/mL for percent sucrose intensity in aqueous sucrose solution (12.5%)

SMILES: N#Cc1ccc(NC(=O)NCS(=O)(=O)O)cc1
- Sweetness potency [1]: 1.37 0-15 scale
- Sweetness potency [2]: 7.34 0-15 scale
- Sweetness potency [3]: 8.85 0-15 scale
- Sweetness potency [4]: 10.1 0-15 scale
- Sweetness potency [5]: 4.9 0-15 scale
- Sweetness potency [6]: 4.46 0-15 scale
- Sweetness potency [7]: 10.1 0-15 scale
- Sweetness potency [8]: 6.97 0-15 scale
- Sweetness potency [9]: 2.2 0-15 scale
- Sweetness potency [10]: 6.1 0-15 scale
- Sweetness potency [11]: 8.15 0-15 scale
- Sweetness potency [12]: 8.52 0-15 scale
- Sweetness potency [13]: 9.62 0-15 scale
- Sweetness potency [14]: 4.5 0-15 scale
- Sweetness potency [15]: 4.2 0-15 scale
- Sweetness potency [16]: 10.2 0-15 scale
- Sweetness potency [17]: 12.9 0-15 scale
- Sweetness potency [18]: 6.91 0-15 scale
- Sweetness potency [19]: 8.86 0-15 scale
- Sweetness potency [20]: 5.34 0-15 scale
- Sweetness potency [21]: 7.82 0-15 scale
- Bitter taste intensity [22]: 8.48 0-15 scale
- Sweetness potency [23]: 2.3 0-15 scale
- Sweetness potency [24]: 6.4 0-15 scale
- Bitter taste intensity [25]: 11.8 0-15 scale
- Bitter taste intensity [26]: 7.8 0-15 scale
- Sweetness potency [27]: 5.28 0-15 scale
- Sweetness potency [28]: 7.55 0-15 scale
- Sweetness potency [29]: 12.3 0-15 scale
- Sweetness potency [30]: 3.3 0-15 scale
- Sweetness potency [31]: 3.23 0-15 scale
- Sweetness potency [32]: 4.06 0-15 scale
- Sweetness potency [33]: 9.3 0-15 scale
- Sweetness potency [34]: 10.5 0-15 scale
- Bitter taste intensity [35]: 4.77 0-15 scale
- Sweetness potency [36]: 5.85 0-15 scale
- Sweetness potency [37]: 8.83 0-15 scale
- Sweetness potency [38]: 2.57 0-15 scale
- Sweetness potency [39]: 3.87 0-15 scale
- Sweetness potency [40]: 6.24 0-15 scale
- Sweetness potency [41]: 6.23 0-15 scale
- Sweetness potency [42]: 4.59 0-15 scale
- Bitter taste intensity [43]: 5.73 0-15 scale
- Sweetness potency [44]: 8.5 0-15 scale
- Sweetness potency [45]: 1.3 0-15 scale
- Sweetness potency [46]: 2.11 0-15 scale
- Sweetness potency [47]: 12 0-15 scale
- Sweetness potency [48]: 9.35 0-15 scale
- Sweetness potency [49]: 1.43 0-15 scale
- Sweetness potency [50]: 4.48 0-15 scale
- Sweetness potency [51]: 9.11 0-15 scale
- Sweetness potency [52]: 8.95 0-15 scale
- Sweetness potency [53]: 9.6 0-15 scale
- Sweetness potency [54]: 6.5 0-15 scale
- Sweetness potency [55]: 7.62 0-15 scale
- Sweetness potency [56]: 6.44 0-15 scale
- Sweetness potency [57]: 5.98 0-15 scale
- Sweetness potency [58]: 9.78 0-15 scale
- Sweetness potency [59]: 8.35 0-15 scale
- Bitter taste intensity [60]: 10.5 0-15 scale
- Sweetness potency [61]: 3.6 0-15 scale
- Sweetness potency [62]: 8.86 0-15 scale
- Sweetness potency [63]: 1.6 0-15 scale
- Sweetness potency [64]: 11.4 0-15 scale
- Sweetness potency [65]: 10.7 0-15 scale
- Sweetness potency [66]: 7.88 0-15 scale
- Sweetness potency [67]: 1.2 0-15 scale
- Sweetness potency [68]: 7.3 0-15 scale
- Sweetness potency [69]: 3.11 0-15 scale
- Sweetness potency [70]: 4 0-15 scale
- Sweetness potency [71]: 10.1 0-15 scale
- Sweetness potency [72]: 6.05 0-15 scale
- Sweetness potency [73]: 3.3 0-15 scale
- Sweetness potency [74]: 11.4 0-15 scale
- Sweetness potency [75]: 9.88 0-15 scale
- Sweetness potency [76]: 5.98 0-15 scale
- Sweetness potency [77]: 7.43 0-15 scale
- Sweetness potency [78]: 8.6 0-15 scale
